Data as given in ChEMBL document CHEMBL3585332, “Antimalarial Isocyano and Isothiocyanato Sesquiterpenes with Tri- and Bicyclic Skeletons from the Nudibranch Phyllidia ocellata” (J Nat Prod, 2015).

Legend:
Plasmodium falciparum [1] = assay: Antimalarial activity against drug-resistant asynchronous Plasmodium falciparum Dd2 infected in erythrocytes assessed as parasite growth inhibition at 10 uM after 48 hrs by [3H]-hypoxanthine incorporation assay relative to control; assay type: functional; settings: read-out: GI
Plasmodium falciparum [2] = assay: Antimalarial activity against chloroquine-sensitive asynchronous Plasmodium falciparum 3D7 infected in erythrocytes assessed as parasite growth inhibition after 48 hrs by [3H]-hypoxanthine incorporation assay; assay type: functional, organism-based
Plasmodium falciparum [3] = assay: Antimalarial activity against drug-resistant asynchronous Plasmodium falciparum Dd2 infected in erythrocytes assessed as parasite growth inhibition after 48 hrs by [3H]-hypoxanthine incorporation assay; assay type: functional, organism-based
[4] = Selectivity ratio of IC50 for human NFF to IC50 for drug-resistant asynchronous Plasmodium falciparum Dd2
[5] = Selectivity ratio of IC50 for human NFF to IC50 for chloroquine-sensitive asynchronous Plasmodium falciparum 3D7

Compound: CC1(C)C=C(NC=O)[C@]23CCC[C@](C)(CC[C@@H]12)C3
- inhibition of growth at 10 µM (Plasmodium falciparum [1]): < 50%
- IC50 (Plasmodium falciparum [2]): > 10000 nM

Compound: [C-]#[N+][C@@H]1[C@H]2C(=C)CCC[C@]2(C)CC[C@H]1C(C)C
- inhibition of growth at 10 µM (Plasmodium falciparum [1]): 98.3%

Compound: [C-]#[N+]C1=CC(C)(C)[C@@H]2CC[C@@]3(C)CCC[C@@]12C3
- inhibition of growth at 10 µM (Plasmodium falciparum [1]): 98.3%
- IC50 (Plasmodium falciparum [3]): 360 nM
- IC50 (Plasmodium falciparum [2]): 300 nM
- Ratio IC50 [4]: 45
- Ratio IC50 [5]: 45

Compound: [C-]#[N+][C@@H]1CC(C)(C)[C@@H]2CC[C@@]3(C)CCC[C@@]12C3
- inhibition of growth at 10 µM (Plasmodium falciparum [1]): 98.3%
- IC50 (Plasmodium falciparum [3]): 830 nM
- IC50 (Plasmodium falciparum [2]): 290 nM
- Ratio IC50 [4]: 45
- Ratio IC50 [5]: 45

Compound: [C-]#[N+][C@@H]1[C@H](C(C)C)CC[C@@H](C)[C@@]12C=C(C)CC2 [AXISONITRILE 3]
- inhibition of growth at 10 µM (Plasmodium falciparum [1]): 98.3%

Compound: CC1(C)C[C@@H]2[C@H]1CC[C@@]1(C)CCC[C@]2(N=C=S)C1
- inhibition of growth at 10 µM (Plasmodium falciparum [1]): < 50%
- IC50 (Plasmodium falciparum [2]): > 10000 nM

Compound: [C-]#[N+][C@]1(C)[C@H](C)C[C@@H]2C[C@H](C)[C@H]3CC[C@](C)([N+]#[C-])[C@H]4CC[C@H]1[C@@H]2[C@H]34 [DIISOCYANOADOCIANE]
- inhibition of growth at 10 µM (Plasmodium falciparum [1]): 98.3%

Compound: [C-]#[N+][C@@H]1CCC(C)=C[C@@H]2[C@@H](C(C)C)CC[C@]21C
- inhibition of growth at 10 µM (Plasmodium falciparum [1]): 98.3%
- IC50 (Plasmodium falciparum [3]): 870 nM
- IC50 (Plasmodium falciparum [2]): 260 nM
- Ratio IC50 [4]: 45
- Ratio IC50 [5]: 45
